Like-named read-outs stand apart in the source and are kept apart here.
Legend:
[1] = tested on: large crabgrass; assay: Test B pre-/postemergence herbicide test; format: in vivo, Digitaria sanguinalis; conditions: for pest or weed control at 125 g/ha / pest or weed control at 500 g/ha: Digitaria sanguinalis
In short: (§1)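 Pre: seeds sown, then sprayed. Post: 1–4-leaf plants (2–18 cm) sprayed at the same time. Paddy: flooded, treated at 2-leaf stage. Formulation: non-phytotoxic solvent with surfactant. Greenhouse 13–15 days; visual 0–100 score relative to controls.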

[2] = tested on: barnyardgrass; assay: Test C flooded paddy test; format: in vivo, Echinochloa crus-galli; conditions: for Plant response rating, Barnyardgrass: 500 g ai/ha, visual rating after 12 to 14 days
In short: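 Weeds and wheat were sprayed after emergence, at a height of 2 to 18 cm (1–4 leaves), and paddy barnyardgrass was flooded and treated at two leaves. Assessment took place 12–14 days later in the greenhouse on a 0-to-100 visual control scale. A dash means no result was obtained.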

[3] = tested on: rice; assay: Test B pre-/postemergence herbicide test; format: in vivo, Oryza sativa
In short: as §1

[4] = tested on: Surinam grass; assay: Test B pre-/postemergence herbicide test; format: in vivo, Urochloa decumbens; conditions: for pest or weed control at 125 g/ha / pest or weed control at 500 g/ha: Urochloa decumbens
In short: as §1

[5] = 500 g ai/ha, visual rating 0-100, 0 no effect, 100 complete control, preemergence
[6] = postemergence, 125 g ai/ha, visual rating, scale 0 (no effect) to 100 (complete control)
[7] = postemergence, 500 g ai/ha, visual rating, scale 0 (no effect) to 100 (complete control)
[8] = preemergence, 125 g ai/ha, 0 to 100 scale, 0 is no effect, 100 is complete control
[9] = 62 g ai/ha, scale 0 to 100 (0 no effect, 100 complete control)
[10] = 125 g ai/ha, scale of 0 to 100, 0 is no effect, 100 is complete control
[11] = 250 g ai/ha, scale of 0 to 100, 0 is no effect, 100 is complete control
[12] = scale 0 to 100 (0 no effect, 100 complete control)
[13] = Postemergence, 500 g ai/ha, visual rating after 13 to 15 days, scale 0 (no effect) to 100 (complete control)
[14] = Preemergence, 500 g ai/ha, scale 0 to 100
[15] = 125 g ai/ha, 0 = no effect, 100 = complete control, preemergence
[16] = 125 g ai/ha, visual rating, scale 0 (no effect) to 100 (complete control), postemergence
[17] = 500 g ai/ha, visual rating, 0 = no effect, 100 = complete control, preemergence
[18] = postemergence, 500 g ai/ha, scale 0 to 100, 0 is no effect, 100 is complete control
[19] = 125 g ai/ha, scale 0 to 100 (0 no effect, 100 complete control)
[20] = 125 g ai/ha, 0 is no effect, 100 is complete control, preemergence

SMILES | Plant response rating, Crabgrass, Large [1, 5] | Crabgrass, Large plant response rating [1, 6] | Crabgrass, Large plant response rating [1, 7] | Plant response rating, Crabgrass, Large [1, 8] | Barnyardgrass plant response rating [2, 9] | Barnyardgrass plant response rating [2, 10] | Barnyardgrass plant response rating [2, 11] | Plant response rating, Barnyardgrass [2, 12] | Plant response rating, Rice [3, 5] | Plant response rating, Surinam Grass [4, 5] | Surinam Grass plant response rating [4, 6] | Crabgrass, Large plant response rating (0 to 100 scale) [1, 15] | Plant response rating, Crabgrass, Large [1, 17] | Crabgrass, Large plant response rating [1, 18] | Barnyardgrass plant response rating [2, 19] | Rice plant response rating (0 to 100 scale) [3, 15] | Plant response rating, Rice [3, 17] | Surinam Grass plant response rating (0 to 100 scale) [4, 15] | Plant response rating, Surinam Grass [4, 17] | Surinam Grass plant response rating [4, 18] | further results
CCn1nc(C(C)(C)C)cc1C(=O)Nc1cccc(OCCCF)c1 [Compound 138] | 100 | 20 | 20 | 40 | 0 | 0 | 15 | 30 | 40 | 30 | 20 |  |  |  |  |  |  |  |  |  | Surinam Grass plant response rating [4, 7]: 30; Plant response rating, Surinam Grass [4, 8]: 0
CCn1nc(C(C)(C)C)cc1C(=O)Nc1cccc(C(=O)NC(C)C)c1 [Compound 51] |  | 20 |  | 90 | 0 | 0 | 20 | 75 |  |  | 10 |  |  |  |  |  |  |  |  |  | Plant response rating, Crabgrass, Large [1, 13]: 50; Crabgrass, Large plant response rating [1, 14]: 100; Rice plant response rating [3, 14]: 50; Plant response rating, Rice [3, 8]: 0; Plant response rating, Surinam Grass [4, 13]: 20; Surinam Grass plant response rating [4, 14]: 80; Plant response rating, Surinam Grass [4, 8]: 30
CCn1nc(C(C)(C)C)cc1C(=O)Nc1cncc(C(=O)N2CC=CC2)n1 [Compound 290] |  |  |  |  | 0 |  | 25 | 40 |  |  |  | 0 | 90 | 0 | 0 | 0 | 80 | 0 | 10 | 30 | Crabgrass, Large plant response rating [1, 16]: 0; Surinam Grass plant response rating [4, 16]: 0
CCc1nc(C(C)(C)C)sc1C(=O)Nc1cccc(C(=O)NCCF)c1 [Compound 209] | 60 | 20 | 20 |  | 0 |  | 70 | 80 | 70 | 50 | 20 | 40 |  |  | 55 | 30 |  | 20 |  |  | Surinam Grass plant response rating [4, 7]: 20
CCn1nc(C(C)(C)C)cc1C(=O)Nc1nc(C(=O)N2CC=CC2)ccc1F [Compound 281] |  | 10 |  |  | 0 |  | 30 | 65 |  |  | 10 | 10 | 70 | 10 | 20 | 20 | 60 | 10 | 40 | 20 | 
C#CCNC(=O)c1cc(NC(=O)c2cc(C(C)(C)C)nn2CC)ccn1 [Compound 283] |  | 0 |  |  | 0 |  | 0 | 10 |  |  | 0 | 0 | 50 | 10 | 0 | 0 | 0 | 0 | 0 | 10 | 
C#CCNC(=O)c1cccc(NC(=O)c2sc(C(C)(C)C)nc2CC)c1 [Compound 319] |  |  |  |  | 0 |  | 50 | 65 |  |  |  |  | 100 | 20 | 25 |  | 70 |  | 60 | 20 | Plant response rating (0 to 100 scale), Crabgrass, Large [1, 20]: 50; Crabgrass, Large plant response rating [1, 16]: 20; Plant response rating (0 to 100 scale), Rice [3, 20]: 30; Plant response rating (0 to 100 scale), Surinam Grass [4, 20]: 20; Surinam Grass plant response rating [4, 16]: 10
CCOc1cccc(NC(=O)c2cc(C(C)(C)C)nn2CC)c1 [Compound 136] | 100 | 10 | 70 | 100 | 20 | 25 | 40 | 80 | 50 | 90 | 20 |  |  |  |  |  |  |  |  |  | Surinam Grass plant response rating [4, 7]: 70; Plant response rating, Surinam Grass [4, 8]: 40
CCN(CC)C(=O)c1cncc(NC(=O)c2cc(C(C)(C)C)nn2CC)c1 [Compound 261, 5-[[[3-(1,1-dimethylethyl)-1-ethyl-1H-pyrazol-5-yl]carbonyl]amino]-N,N-diethyl-3-pyridinecarboxamide] |  |  |  |  |  |  |  |  |  |  |  |  |  |  |  |  |  |  |  |  | pest or weed control at 125 g/ha ([1]; post-emergence, postemergence, 125 g ai/ha, visual rating, scale 0 (no effect) to 100 (complete control), read-out: Crabgrass, Large plant response rating): 0%; pest or weed control at 500 g/ha ([1]; post-emergence, postemergence, 500 g ai/ha, scale 0 to 100, 0 is no effect, 100 is complete control, read-out: Crabgrass, Large plant response rating): 10%; pest or weed control at 125 g/ha ([1]; pre-emergence, 125 g ai/ha, 0 = no effect, 100 = complete control, read-out: Crabgrass, Large plant response rating (0 to 100 scale)): 50%; pest or weed control at 500 g/ha ([1]; pre-emergence, 500 g ai/ha, visual rating, 0 = no effect, 100 = complete control, read-out: Plant response rating, Crabgrass, Large): 50%; plant injury at 125 g/ha ([3]; Oryza sativa, pre-emergence, 336 h, 125 g ai/ha, 0 = no effect, 100 = complete control, read-out: Rice plant response rating (0 to 100 scale)): 0%; plant injury at 500 g/ha ([3]; Oryza sativa, pre-emergence, 336 h, 500 g ai/ha, visual rating, 0 = no effect, 100 = complete control, read-out: Plant response rating, Rice): 60%; pest or weed control at 125 g/ha ([4]; post-emergence, postemergence, 125 g ai/ha, visual rating, scale 0 (no effect) to 100 (complete control), read-out: Surinam Grass plant response rating): 0%; pest or weed control at 500 g/ha ([4]; post-emergence, postemergence, 500 g ai/ha, scale 0 to 100, 0 is no effect, 100 is complete control, read-out: Surinam Grass plant response rating): 20%; pest or weed control at 125 g/ha ([4]; pre-emergence, 125 g ai/ha, 0 = no effect, 100 = complete control, read-out: Surinam Grass plant response rating (0 to 100 scale)): 0%; pest or weed control at 500 g/ha ([4]; pre-emergence, 500 g ai/ha, visual rating, 0 = no effect, 100 = complete control, read-out: Plant response rating, Surinam Grass): 0%

Reference: patent publication US20060069132A1, “Azolecarboxamide herbicides” (priority 2004, published 2006)
